Where a name gives a salt, the structure may show the parent alone.
Legend:
[1] = tested on: NET; test: Occupancy assay, ex vivo binding in brain tissue, NET; conditions: dose 1 mg/kg, time point 3 hour
Source text: (§1) The general procedure for brain tissue collection and transporter occupancy assessment is briefly described as follows. Mice were sacrificed by asphyxiation in CO2, rats by decapitation and dogs by IV injection of euthanasia solution. For mice and rats, after the brains were removed from the skull, the forebrain tissue (removal of the brainstem and cerebellum) was used for SERT, NET, and DAT occupancy assessment. In dogs, the striatum was dissected for DAT occupancy and the remaining forebrain tissue (without the striatum, brainstem, and cerebellum) was used for SERT and NET occupancy assessment. The brain tissues were frozen in chilled isopentane and stored at −80° C. until homogenization.
(§2) The brain tissues were thawed and then homogenized using a polytron homogenizer (Kinematica). Sample aliquots were frozen immediately and stored at −80° C. Protein content was measured for each sample using a Coomassie protein assay kit (Pierce).
(§3) On the day of ex vivo binding for occupancy assessment, frozen sample aliquots were thawed and needle homogenized, and 100 μg of the tissue was incubated for SERT, NET, and DAT binding under assay conditions summarized in Table 1. […] Radioligand was measured using a Wallac Microbeta liquid scintillation counter.
(§4) The specific binding was calculated by subtracting the value of the non-specific binding from that of the total binding in each sample. […]

[2] = Mouse tail suspension assay; assay type: in vivo; conditions: male Swiss Webster mice, acute administration
Protocol: Male Swiss Webster mice were housed 3-4 per cage in rooms maintained at a constant temperature (21-23° C.) and humidity (50±10%) on a 12-hour light/dark cycle. Animals had ad libitum access to water and food throughout studies. On the day of testing, they were brought into the testing room and allowed to acclimate for 1 hour. To begin testing, the tail was attached to a piece of tape which was then attached to a hook on the ceiling of a sound-attenuated chamber. Immobility was automatically recorded using the Med Associates software. Compounds were administered acutely at a fixed pretreatment interval before session.

[3] = tested on: SERT; test: Occupancy assay, ex vivo binding in brain tissue, SERT; conditions: dose 1 mg/kg, time point 3 hour
Source text: as §1, §2, §3, §4

[4] = tested on: DAT; test: Occupancy assay, ex vivo binding in brain tissue, DAT; conditions: dose 1 mg/kg, time point 3 hour
Source text: as §1, §2, §3, §4

[5] = molecular target: hNET (Homo sapiens (Human), UniProt P23975); test: NET radioligand binding assay ([3H]nisoxetine, HEK-293 membranes)
Protocol: (§5) Recombinant HEK-293 cells expressing either the hSERT, hDAT, or hNET proteins were harvested from T-175 flasks as follows. The medium was removed from the flasks and the cells rinsed with HBSS without Ca and without Mg. The cells were then incubated for 5-10 minutes in 10 mM Tris-Cl, pH 7.5, 5 mM EDTA before the cells were lifted with a combination of pipetting and scraping, as needed. The cell suspension was collected into centrifuge bottles and homogenized for 30 seconds with a Polytron homogenizer. The suspension was centrifuged for 30 minutes at 32,000×g, 4° C. The supernatant was decanted and the pellet resuspended and homogenized in 50 mM Tris-Cl, pH 7.5, 1 mM EDTA for 10 seconds. […]
(§6) Compounds were dissolved in 100% DMSO at a concentration 100 times the desired highest assay concentration, serially diluted 1:3 in 100% DMSO, and 1.0 μl/well of each solution was dispensed to a Nunc polypropylene, round bottom, 384-well plate. […] The plates were air-dried overnight, 12 μl/well of MicroScint scintillation fluid added, and the plates counted in a Trilux.
(§7) The raw data was normalized to percent inhibition using control wells defining 0% (DMSO only) and 100% (selective inhibitor) inhibition which were run on each plate. […] The radioligand concentration chosen for each assay corresponds to the Kd concentration determined through saturation binding analysis for each assay.

[6] = molecular target: hSERT (Homo sapiens (Human), UniProt P31645); test: SERT radioligand binding assay ([125I]RTI-55, HEK-293 membranes)
Protocol: as §5, with “seconds. The suspension was then centrifuged again for 30 minutes at 32,000×g, 4° C. The supernatant was decanted and the pellet resuspended in 50 mM Tris-Cl, pH 7.5, 1 mM EDTA and briefly homogenized. A Bradford assay (Bio-rad) was performed and the membrane preparation diluted to 2 mg/ml with 50 mM Tris-Cl, pH 7.5, 1 mM EDTA.” for “seconds.”
as §6, with “0.4” for “1.0”, “Trilux. […]” for “Trilux.”

[7] = molecular target: hDAT (Homo sapiens (Human), UniProt Q01959); test: DAT radioligand binding assay ([125I]RTI-55, HEK-293 membranes)
Protocol: as §5
as §6, with “0.4” for “1.0”
as §7

Sequence of hNET (P23975 whole entry): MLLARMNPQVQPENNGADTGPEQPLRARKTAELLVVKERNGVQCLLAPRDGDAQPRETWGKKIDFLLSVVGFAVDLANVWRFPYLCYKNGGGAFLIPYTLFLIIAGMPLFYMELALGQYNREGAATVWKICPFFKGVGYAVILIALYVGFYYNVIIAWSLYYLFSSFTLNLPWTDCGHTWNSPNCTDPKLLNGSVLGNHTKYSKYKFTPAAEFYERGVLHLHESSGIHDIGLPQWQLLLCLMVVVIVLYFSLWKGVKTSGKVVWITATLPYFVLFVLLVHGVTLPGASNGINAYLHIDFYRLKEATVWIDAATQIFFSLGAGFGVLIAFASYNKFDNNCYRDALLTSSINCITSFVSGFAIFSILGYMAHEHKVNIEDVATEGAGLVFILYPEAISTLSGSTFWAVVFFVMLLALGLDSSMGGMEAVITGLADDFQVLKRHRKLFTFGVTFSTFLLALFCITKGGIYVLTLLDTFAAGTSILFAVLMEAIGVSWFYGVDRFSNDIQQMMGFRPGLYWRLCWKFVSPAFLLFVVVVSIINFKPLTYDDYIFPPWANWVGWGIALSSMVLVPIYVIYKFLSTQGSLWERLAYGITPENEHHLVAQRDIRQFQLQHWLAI
Sequence of hDAT (Q01959 whole entry): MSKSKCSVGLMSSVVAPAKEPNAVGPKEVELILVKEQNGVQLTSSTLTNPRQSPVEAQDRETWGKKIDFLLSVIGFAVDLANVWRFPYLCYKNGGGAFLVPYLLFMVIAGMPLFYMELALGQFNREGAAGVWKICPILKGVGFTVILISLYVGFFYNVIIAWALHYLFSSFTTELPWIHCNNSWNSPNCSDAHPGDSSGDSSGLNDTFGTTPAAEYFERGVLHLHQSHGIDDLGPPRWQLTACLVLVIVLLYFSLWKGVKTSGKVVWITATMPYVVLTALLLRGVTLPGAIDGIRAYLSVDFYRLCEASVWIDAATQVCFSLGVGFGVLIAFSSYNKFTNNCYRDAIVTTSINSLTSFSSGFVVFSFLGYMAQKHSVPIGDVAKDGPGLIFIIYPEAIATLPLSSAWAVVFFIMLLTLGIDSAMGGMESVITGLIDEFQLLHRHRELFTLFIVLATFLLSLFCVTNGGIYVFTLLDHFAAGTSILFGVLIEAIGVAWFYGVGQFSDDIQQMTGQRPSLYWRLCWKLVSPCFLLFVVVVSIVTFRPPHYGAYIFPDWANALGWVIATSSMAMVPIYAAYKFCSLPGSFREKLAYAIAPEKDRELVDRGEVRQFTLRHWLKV

**Q.** With `Clc1ccc(C2CNCc3cc(-c4ccc5ncnn5c4)ccc32)cc1Cl` (single isomer, unassigned; (+)) [Example 1 (+)-enantiomer, (+)-7-([1,2,4]triazolo[1,5-a]pyridin-6-yl)-4-(3,4-dichlorophenyl)-1,2,3,4-tetrahydroisoquinoline, L-tartrate salt] as the compound, how does the “NET Occupancy %” value [1] read?
**A.** 11%

**Q.** What about the “minimum effective dose in the mouse tail suspension study” value [2] of the same compound?
**A.** 10 mg/kg

**Q.** What about the “SERT Occupancy %” value [3] of the same compound?
**A.** 75%

**Q.** What about the “DAT Occupancy %” value [4] of the same compound?
**A.** 26%

**Q.** For `Clc1ccc(C2CNCc3cc(-c4ccc5ncnn5c4)ccc32)cc1Cl` (single isomer, unassigned; enantiomer 7) [Example 1 (−)-enantiomer, 7-([1,2,4]triazolo[1,5-a]pyridin-6-yl)-4-(3,4-dichlorophenyl)-1,2,3,4-tetrahydroisoquinoline], which IC50 [5] is on record?
**A.** 4.8 nM

**Q.** And the IC50 [6]?
**A.** 4.2 nM

**Q.** What about the “NET Occupancy %” value [1] of the same compound?
**A.** 33%

**Q.** What about the IC50 [7] of the same compound?
**A.** 105 nM

**Q.** What about the “SERT Occupancy %” value [3] of the same compound?
**A.** 41%

**Q.** What about the “DAT Occupancy %” value [4] of the same compound?
**A.** 30%

— patent US9173879B2, “Crystalline forms of (S)-7-([1,2,4]triazolo[1,5-a ]pyridin-6-yl)-4-(3,4-dichlorophenyl)-1,2,3,4-tetrahydroisoquinoline and use thereof” (Bristol-Myers Squibb Company, priority 2009, dated 2015)
